Where a name gives a salt, the structure may show the parent alone. One block for each molecule: values may come before it.
Experiments:
Assay type in all cases: cell-based
CRAC channels [1] = biological target: T1, CRAC channels (Homo sapiens (Human), UniProt Q96D31); experiment: In-vitro CRAC channel inhibition assay in Jurkat cells (thapsigargin-induced calcium influx)
Procedure, shortened: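 Jurkat cells given test compounds in Ca2+/Mg2+-free Hanks buffer for 15 min, then thapsigargin (1 μM final) for 15 min to deplete ER stores. IC50 from percent inhibition of thapsigargin-induced Ca2+ influx.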

[2] = system: NCI-H460 cancer cell line; experiment: In-vitro cell proliferation assay in NCI-H460 cancer cell line (MTT); details: Homo sapiens, 48 h; for IC50: read-out: NCI-H460 Cell line assay G1 50 nM
Method: 1C. In-Vitro Cell Proliferation Assay in NCI-H460 Cancer Cell Line (Anticancer Activity)
Growth inhibition assays were carried out using 10% FBS supplemented media. Cells were seeded at a concentration of 5000 cells/well in a 96-well plate. Test compound at a concentration range from 0.01 to 10000 nM were added after 24 h. Growth was assessed using the 3-[4,5-dimethylthiazol-2-yl]-2,5-diphenyltetrazolium bromide (MTT) dye reduction test at 0 h (prior to the addition of the test compound) and 48 h after the addition of test compound. Absorbance was read on a Fluostar Optima (BMG Labtech, Germany) at a wave length of 450 nm. Data were analysed using GraphPad Prism. IC-50 for each compound was determined based on the % inhibition due to the test compound compared to the control.
For methods of cell proliferation assay, see, for example, Mosmann. T., Journal of Immunological Methods, 65(1-2), 55-63, (1983).

CRAC channels [3] = biological target: T1, CRAC channels; experiment: In-vitro CRAC channel inhibition assay in NCI-H460 cancer cell line (Ca assay); details: thapsigargin-induced calcium influx, NCI-H460 cells
Method: 1B. In-Vitro CRAC Channel Inhibition Assay in NCI-H460 Cancer Cell Line
Inhibition of CRAC channels was determined following thapsigargin (Sigma, Cat #T9033) induced endoplasmic calcium release in NCI-H460 cells (National Centre For Cell Science (NCCS), Pune).
Cells (30,000 per well) were plated overnight in complete RPMI medium. Medium was substituted with Ca^2+ and Mg^2+ free Hanks buffer and Fluo-8 NW dye (ABD Bioquest, Inc., Sunnyvale, Calif.) loading solution in 96-well black plate. Plate was incubated at 37° C./5% CO2 for 30 min followed by further 15 min incubation at room temperature. Test compounds (DMSO stocks diluted in Ca^2+ and Mg^2+ free Hanks buffer) at desired concentrations were added to the wells and incubated for 15 min. Thapsigargin (1 μM final concentration) was added to the wells and incubated for 15 min to inhibit the Sarco-endoplasmic reticulum Ca^2+ ATPase pump thereby depleting endoplasmic calcium and raising cytosolic calcium concentrations. Store-operated calcium entry was initiated by adding extracellular Ca^2+ to a final concentration of 2.5 mM. Fluorescence was monitored over 30 min on a plate reader (BMG Labtech., Germany) with excitation at 485 nm and an emission wavelength at 520 nm. Data were analyzed using GraphPad Prism. IC50 for each compound was determined based on the percent inhibition of Thapsigargin-induced calcium influx into cells.

IL-2 [4] = experiment: Inhibition of cytokine release in Human Whole Blood: IL-2; details: Con A + PMA, 20 h, ELISA, read-out: IC 50 Human Whole Blood IL-2
Method: (§1) 2. In Vitro Inhibition of Cytokine Release in Jurkat Cells, Human Whole Blood and Peripheral Blood Mononuclear Cells (PBMC).
(§2) Inhibition of cytokine IL-2, IL-4, IL-5 and TNF α was determined as described below. • a. Inhibition of IL-2 in Jurkat cells: Cells were incubated with desired concentrations of the inhibitor for 15 min. Cytokine release was induced by the addition of Concanavalin A (25 μg/ml)+Phorbol Myristate Acetate (50 ng/ml) for IL-2 & TNFα or with Phytohemagglutinin ([…]) for IL-4 & IL-5 and incubated at 37° C. in an atmosphere containing […]. Supernatant was collected after 20 h (IL-2 & TNFα) or 48 h (IL-4 & IL-5) for estimation of cytokines by ELISA. Data were analysed using GraphPad Prism. IC50 values for each compound were determined based on the percent inhibition due to the test compound compared to the control. • b. Inhibition of cytokine release in Human Whole Blood (HWB): Freshly collected HWB was diluted with RPMI medium (1:4.5) and added to a 96-well plate. Wells were incubated with desired concentrations of the inhibitor for 15 min. Cytokine release was induced by the addition of Concanavalin A (25 μg/ml)+Phorbol Myristate Acetate (50 ng/ml) for IL-2 & TNFα or with Phytohemagglutinin (5 μg/ml) for IL-4 & IL-5 and incubated at 37° C. in an atmosphere containing […]. Supernatant was collected after 20 h (IL-2 & TNFα) or 48 h (IL-4 & IL-5) for estimation of cytokines by ELISA. Data were analysed using GraphPad Prism. IC50 values for each compound were determined based on the percent inhibition due to the test compound compared to the control. • c. Inhibition of cytokine release in PBMC: PBMC from freshly collected HWB were isolated by density gradient using Histopaque and seeded in a 96-well plate. Cells were incubated with desired concentrations of the inhibitor for 15 min. Cytokine release was induced by the addition of Concanavalin A (25 μg/ml)+Phorbol Myristate Acetate (50 ng/ml) for IL-2 & TNFα or with Phytohemagglutinin (5 μg/ml) for IL-4 & IL-5 and incubated at 37° C. in an atmosphere containing […]. Supernatant was collected after 20 h (IL-2 & TNFα) or 48 h (IL-4 & IL-5) for estimation of cytokines by ELISA. Data were analysed using GraphPad Prism. IC50 values for each compound were determined based on the percent inhibition due to the test compound compared to the control.

IL-5 [5] = experiment: Inhibition of cytokine release in Human Whole Blood: IL-5; details: Phytohemagglutinin, 48 h, ELISA, read-out: IC 50 Human Whole Blood IL-5
Method: as §1, §2

IL-5 [6] = experiment: Inhibition of cytokine release in PBMC: IL-5; details: Homo sapiens, Phytohemagglutinin, 48 h, ELISA, read-out: IC 50 PBMC IL-5
Method: as §1, §2

IL-2 [7] = experiment: Inhibition of cytokine release in PBMC: IL-2; details: Homo sapiens, Con A + PMA, 20 h, ELISA, read-out: IC 50 PBMC IL-2
Method: as §1, §2

TNFα [8] = experiment: Inhibition of cytokine release in Human Whole Blood: TNFα; details: Con A + PMA, 20 h, ELISA, read-out: IC 50 Human Whole Blood TNFα
Method: as §1, §2

TNFα [9] = experiment: Inhibition of cytokine release in PBMC: TNFα; details: Homo sapiens, Con A + PMA, 20 h, ELISA, read-out: IC 50 PBMC TNFα
Method: as §1, §2

IL-2 [10] = experiment: Inhibition of IL-2 in Jurkat cells; details: Homo sapiens, Con A + PMA, 20 h, ELISA, read-out: IC 50 Jurkat IL-2
Method: as §1, §2

IL-4 = experiment: Inhibition of cytokine release in PBMC: IL-4; details: Homo sapiens, Phytohemagglutinin, 48 h, ELISA, read-out: IC 50 PBMC IL-4
Method: as §1, §2

T1 sequence (Q96D31 whole entry): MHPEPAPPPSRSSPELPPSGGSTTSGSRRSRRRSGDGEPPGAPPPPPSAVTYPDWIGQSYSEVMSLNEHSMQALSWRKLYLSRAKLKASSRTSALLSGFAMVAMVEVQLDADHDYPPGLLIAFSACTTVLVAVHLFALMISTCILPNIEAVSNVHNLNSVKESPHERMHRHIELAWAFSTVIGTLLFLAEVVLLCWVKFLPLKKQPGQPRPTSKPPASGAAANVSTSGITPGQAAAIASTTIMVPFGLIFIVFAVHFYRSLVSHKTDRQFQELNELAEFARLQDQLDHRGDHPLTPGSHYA

Compound: O=C(Nc1ccc(-n2nc(C3CC3)cc2C2CC2)cc1)c1ccccc1 [Example 6, N-[4-(3,5-dicyclopropyl-1H-pyrazol-1-yl)phenyl]benzamide]
inhibition at 1 µM (CRAC channels [1]): 41.3%
inhibition at 10 µM [2]: 35%
inhibition at 1 µM (CRAC channels [3]): 86%

Compound: O=C(Nc1ccc(-n2nc(C(F)(F)F)cc2C2CC2)c(F)c1)c1ccncc1F [Example 91, N-{4-[5-cyclopropyl-3-(trifluoromethyl)-1H-pyrazol-1-yl]-3-fluorophenyl}-3-fluoroisonicotinamide]
inhibition at 1 µM (CRAC channels [1]): 100%
inhibition at 10 µM [2]: 92.7%
IC50 [2]: 1360 nM

Compound: O=C(Nc1ccc(-n2nc(C3CC3)cc2C2CC2)cc1)C1(c2ccccc2)CC1 [Example 21, N-[4-(3,5-dicyclopropyl-1H-pyrazol-1-yl)phenyl]-1-phenylcyclopropanecarboxamide]
inhibition at 1 µM (CRAC channels [1]): 78.4%
inhibition at 10 µM [2]: 41%

Compound: O=C(Nc1ccc(-n2nc(C(F)(F)F)cc2C2CC2)nc1)c1ccccc1F [Example 106, N-(6-(5-cyclopropyl-3-(trifluoromethyl)-1H-pyrazol-1-yl)pyridin-3-yl)-2-fluorobenzamide]
IC50 (TNFα [9]): 105 nM
inhibition at 1 µM (CRAC channels [1]): 100%
IC50 (IL-2 [4]): 83.6 nM
IC50 (IL-2 [10]): 60.5 nM
IC50 (IL-2 [7]): 11.5 nM

Compound: O=C(Nc1ccc(-n2nc(C(F)(F)F)cc2C2CC2)c(F)c1)c1ccncc1 [Example 90, N-{4-[5-cyclopropyl-3-(trifluoromethyl)-1H-pyrazol-1-yl]-3-fluorophenyl}isonicotinamide hydrochloride]
inhibition at 1 µM (CRAC channels [1]): 100%
inhibition at 10 µM [2]: 90.7%
IC50 [2]: 305 nM

Compound: O=C(Nc1ccc(-n2nc(C3CC3)cc2C2CC2)cc1)c1cccc(F)c1F [Example 9, N-[4-(3,5-dicyclopropyl-1H-pyrazol-1-yl)phenyl]-2,3-difluorobenzamide]
inhibition at 1 µM (CRAC channels [1]): 98.6%
inhibition at 10 µM [2]: 14%
inhibition at 1 µM (CRAC channels [3]): 86.8%

Compound: O=C(Nc1ccc(-n2nc(C(F)(F)F)cc2C2CC2)c(F)c1)c1c(Cl)cncc1Cl [Example 92, 3,5-dichloro-N-{4-[5-cyclopropyl-3-(trifluoromethyl)-1H-pyrazol-1-yl]-3-fluorophenyl}isonicotinamide]
inhibition at 1 µM (CRAC channels [1]): 95.8%
inhibition at 10 µM [2]: 100%

Compound: C[C@]12C=CC(=O)C=C1CC[C@@H]1[C@@H]2[C@@H](O)C[C@@]2(C)[C@H]1CC[C@]2(O)C(=O)CO [Prednisolone, reference compound]
IC50 (IL-2 [4]): 77.2 nM
IC50 (IL-2 [10]): 35.5 nM
IC50 (IL-2 [7]): 3.72 nM

Continued, in another order:

inhibition at 1 µM (CRAC channels [1]): 100%
inhibition at 1 µM (CRAC channels [3]): 78.2%
Compound: Cc1nnsc1C(=O)Nc1ccc(-n2nc(C(F)(F)F)cc2C2CC2)cc1 [Example 52, N-{4-[5-cyclopropyl-3-(trifluoromethyl)-1H-pyrazol-1-yl]phenyl}-4-methyl-1,2,3-thiadiazole-5-carboxamide]
inhibition at 10 µM [2]: 34%

inhibition at 1 µM (CRAC channels [1]): 100%
IC50 [2]: 197 nM
inhibition at 1 µM (CRAC channels [3]): 100%
Compound: Cc1ncsc1C(=O)Nc1ccc(-n2nc(C3CC3)cc2C2CC2)cc1 [Example 2, N-[4-(3,5-dicyclopropyl-1H-pyrazol-1-yl)phenyl]-4-methylthiazole-5-carboxamide]

inhibition at 1 µM (CRAC channels [1]): 100%
IC50 (IL-2 [4]): 600 nM
IC50 (IL-5 [5]): 46.3 nM
IC50 (IL-5 [6]): 198 nM
IC50 (IL-2 [7]): 54.3 nM
Compound: Cc1nnsc1C(=O)Nc1ccc(-n2nc(C3CC3)cc2C2CC2)c(F)c1 [Example 28, N-[4-(3,5-dicyclopropyl-1H-pyrazol-1-yl)-3-fluorophenyl]-4-methyl-1,2,3-thiadiazole-5-carboxamide]

inhibition at 1 µM (CRAC channels [1]): 99%
IC50 (IL-2 [4]): 338 nM
IC50 (TNFα [8]): 1080 nM
inhibition at 1 µM (CRAC channels [3]): 93.2%
Compound: Cc1nnsc1C(=O)Nc1ccc(-n2nc(C3CC3)cc2C2CC2)cc1 [Example 1, N-[4-(3,5-dicyclopropyl-1H-pyrazol-1-yl)phenyl]-4-methyl-1,2,3-thiadiazole-5-carboxamide]
inhibition at 10 µM [2]: 31%

IC50 (TNFα [9]): 21.1 nM
inhibition at 1 µM (CRAC channels [1]): 100%
IC50 (IL-2 [4]): 96.1 nM
IC50 (TNFα [8]): 582 nM
IC50 (IL-2 [10]): 57.5 nM
IC50 (IL-2 [7]): 66.7 nM
Compound: Cc1ccccc1C(=O)Nc1ccc(-n2nc(C(F)(F)F)cc2C2CC2)nc1 [Example 104, N-{6-[5-cyclopropyl-3-(trifluoromethyl)-1H-pyrazol-1-yl]pyridin-3-yl}-2-methylbenzamide]

inhibition at 1 µM (CRAC channels [1]): 100%
IC50 [2]: 613 nM
inhibition at 1 µM (CRAC channels [3]): 100%
Compound: Cc1nc(C)c(C(=O)Nc2ccc(-n3nc(C(F)(F)F)cc3C3CC3)cc2)s1 [Example 55, N-{4-[5-cyclopropyl-3-(trifluoromethyl)-1H-pyrazol-1-yl]phenyl}-2,4-dimethylthiazole-5-carboxamide]

inhibition at 1 µM (CRAC channels [1]): 100%
IC50 (IL-2 [4]): 34.7 nM
IC50 (IL-2 [7]): 149 nM
Compound: Cc1ncsc1NC(=O)c1ccc(-n2nc(C(F)(F)F)cc2C2CC2)cc1 [Example 78, 4-[5-cyclopropyl-3-(trifluoromethyl)-1H-pyrazol-1-yl]-N-(4-methylthiazol-5-yl)benzamide]

inhibition at 1 µM (CRAC channels [1]): 100%
IC50 (IL-2 [4]): 38.2 nM
IC50 (IL-2 [7]): 24.6 nM
Compound: Cc1nnsc1C(=O)Nc1ccc(-n2nc(C(F)(F)F)cc2C2CC2)c(F)c1 [Example 82, N-{4-[5-cyclopropyl-3-(trifluoromethyl)-1H-pyrazol-1-yl]-3-fluorophenyl}-4-methyl-1,2,3-thiadiazole-5-carboxamide]

IC50 (TNFα [9]): 86.8 nM
inhibition at 1 µM (CRAC channels [1]): 100%
IC50 (IL-2 [4]): 132 nM
IC50 (TNFα [8]): 546 nM
IC50 (IL-2 [10]): 57.9 nM
IC50 (IL-4): 352 nM
IC50 (IL-2 [7]): 15.7 nM
Compound: Cc1ncsc1C(=O)Nc1ccc(-n2nc(C(F)(F)F)cc2C2CC2)c(F)c1 [Example 83, N-{4-[5-cyclopropyl-3-(trifluoromethyl)-1H-pyrazol-1-yl]-3-fluorophenyl}-4-methylthiazole-5-carboxamide]
